Results as given in US9062124B2, “GIP-based mixed agonists for treatment of metabolic disorders and obesity” (priority 2008, dated 2015).
Read-outs that look alike come from different tables or passages of the source. Where a SMILES comes first, the peptide text is derived from it. Bridges are numbered along the chain shown (N, C = ends). Where no end group is shown, it is not given here. [ ]: non-standard residue; d: D form. The star is where a group is joined. PEG 40 kDa = PEG (40 kDa) covalently attached to Cys; Octanoyl = CCCCCCCC(=O)*; Aib = CC(C)(N)C(=O)O

How the values were obtained:
Assay type in all cases: cell-based
[1] = molecular target: T1, GIP receptor (Homo sapiens, UniProt P48546); experiment: cAMP synthesis functional assay (firefly luciferase reporter in HEK293 cells), GIP receptor
T1 construct: expressed in transfected cells; host or cells: HEK293
T1 sequence (P48546 22-466): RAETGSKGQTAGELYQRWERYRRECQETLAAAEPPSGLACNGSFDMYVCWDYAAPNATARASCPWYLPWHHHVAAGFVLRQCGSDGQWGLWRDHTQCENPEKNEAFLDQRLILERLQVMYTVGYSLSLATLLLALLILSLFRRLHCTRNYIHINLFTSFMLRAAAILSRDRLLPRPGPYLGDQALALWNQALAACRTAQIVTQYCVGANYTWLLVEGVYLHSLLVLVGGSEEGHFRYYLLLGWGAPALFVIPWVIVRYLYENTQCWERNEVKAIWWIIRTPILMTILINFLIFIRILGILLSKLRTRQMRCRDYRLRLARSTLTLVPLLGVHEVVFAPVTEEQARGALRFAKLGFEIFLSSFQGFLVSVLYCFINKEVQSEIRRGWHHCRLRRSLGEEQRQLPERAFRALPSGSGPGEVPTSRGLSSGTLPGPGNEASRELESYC

[2] = molecular target: T2, glucagon receptor (Homo sapiens, UniProt P47871); experiment: cAMP synthesis functional assay (firefly luciferase reporter in HEK293 cells), glucagon receptor; conditions: for EC50: Glucagon Receptor EC50, cAMP luciferase reporter assay as in Example 16
T2 construct: expressed in transfected cells; host or cells: HEK293

[3] = system: glucagon receptor, GLP-1 receptor or GIP receptor; experiment: Agonist profile across receptors assigned from the cAMP reporter assay data; conditions: assigned from the in vitro EC50 data of Tables 1-4
[4] = molecular target: T3, GLP-1 receptor (Homo sapiens, UniProt P43220); experiment: cAMP synthesis functional assay (firefly luciferase reporter in HEK293 cells), GLP-1 receptor
T3 construct: expressed in transfected cells; host or cells: HEK293

[5] = relative to the standard (Std.) EC50 of the same run
[6] = GIP Receptor EC50, cAMP luciferase reporter assay as in Example 16
[7] = GLP-1 Receptor EC50, cAMP luciferase reporter assay as in Example 16
[8] = Table 1, relative to the native hormone of the indicated receptor

T2 sequence (P47871 26-477): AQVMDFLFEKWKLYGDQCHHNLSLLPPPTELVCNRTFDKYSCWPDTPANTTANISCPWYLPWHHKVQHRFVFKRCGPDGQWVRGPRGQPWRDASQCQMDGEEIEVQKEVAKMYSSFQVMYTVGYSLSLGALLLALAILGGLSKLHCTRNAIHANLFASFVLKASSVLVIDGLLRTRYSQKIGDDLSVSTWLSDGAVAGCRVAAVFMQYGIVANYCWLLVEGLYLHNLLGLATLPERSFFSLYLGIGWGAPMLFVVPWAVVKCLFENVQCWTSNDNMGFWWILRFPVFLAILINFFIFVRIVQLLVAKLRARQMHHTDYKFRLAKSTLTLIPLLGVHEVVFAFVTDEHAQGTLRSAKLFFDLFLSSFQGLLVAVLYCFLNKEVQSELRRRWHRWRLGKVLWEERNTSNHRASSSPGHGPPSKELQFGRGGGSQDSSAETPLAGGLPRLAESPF
T3 sequence (P43220 24-463, species assumed): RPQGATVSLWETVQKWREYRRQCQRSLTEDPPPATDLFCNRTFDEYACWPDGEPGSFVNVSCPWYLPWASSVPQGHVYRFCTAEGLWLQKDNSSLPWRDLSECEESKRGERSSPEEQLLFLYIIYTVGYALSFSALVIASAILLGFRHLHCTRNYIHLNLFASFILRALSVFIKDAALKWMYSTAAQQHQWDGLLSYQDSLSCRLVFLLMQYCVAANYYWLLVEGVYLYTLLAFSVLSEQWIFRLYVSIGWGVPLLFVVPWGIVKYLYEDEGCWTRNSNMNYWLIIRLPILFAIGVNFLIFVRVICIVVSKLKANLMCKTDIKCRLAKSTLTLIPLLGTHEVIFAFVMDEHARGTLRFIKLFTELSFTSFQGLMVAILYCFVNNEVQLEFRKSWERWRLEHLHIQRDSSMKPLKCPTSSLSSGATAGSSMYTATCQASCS

| Compound | EC50 ([1]; read-out: GIP Receptor EC50, cAMP luciferase reporter assay as in Example 16) | GIP Receptor relative activity [1, 5] | Glucagon Receptor relative activity [2, 5] | receptor activity profile (glucagon / GLP-1 / GIP agonism) [3] | EC50 ([4]; read-out: GLP-1 Receptor EC50, cAMP luciferase reporter assay as in Example 16) | GLP-1 Receptor relative activity [4, 5] | EC50 [1, 6] | EC50 [2] | EC50 [4, 7] | GIP Receptor relative activity [1, 8] | Glucagon Receptor relative activity [2, 8] | EC50 ([4]; GLP-1 Receptor EC50, nM, Table 1) | GLP-1 Receptor relative activity [4, 8] |
| --- | --- | --- | --- | --- | --- | --- | --- | --- | --- | --- | --- | --- | --- |
| mt-295: linear peptide of Table 3 (Y[Aib]EGTFTSDYSIYLDKQAA[Aib]EFVNWLLAGGPSSGAPPPSC(PEG 40 kDa)-NH2) | 0.0577 nM | 19.06% | 0.03% | exhibited activity at the GIP, GLP-1, and glucagon receptors | 0.114 nM | 6.74% |  |  |  |  |  |  |  |
| CCCCCCCCCCCCCCCCCC(=O)NCCCC[C@H](NC(=O)[C@H](CO)NC(=O)[C@@H]1CCCN1C(=O)[C@@H]1CCCN1C(=O)[C@@H]1CCCN1C(=O)[C@H](C)NC(=O)CNC(=O)[C@H](CO)NC(=O)[C@H](CO)NC(=O)[C@@H]1CCCN1C(=O)CNC(=O)CNC(=O)[C@H](C)NC(=O)[C@H](CC(C)C)NC(=O)[C@H](CC(C)C)NC(=O)[C@H](Cc1c[nH]c2ccccc12)NC(=O)[C@H](CS)NC(=O)[C@@H](NC(=O)[C@H](Cc1ccccc1)NC(=O)[C@H](CCC(=O)O)NC(=O)C(C)(C)NC(=O)[C@H](C)NC(=O)[C@H](C)NC(=O)[C@H](CCC(N)=O)NC(=O)[C@H](CCCCN)NC(=O)[C@H](CC(=O)O)NC(=O)[C@H](CC(C)C)NC(=O)[C@H](Cc1ccc(O)cc1)NC(=O)[C@@H](NC(=O)[C@H](CO)NC(=O)[C@H](Cc1ccc(O)cc1)NC(=O)[C@H](CC(=O)O)NC(=O)[C@H](CO)NC(=O)[C@@H](NC(=O)[C@H](Cc1ccccc1)NC(=O)[C@@H](NC(=O)CNC(=O)[C@H](CCC(N)=O)NC(=O)C(C)(C)NC(=O)[C@@H](N)Cc1ccc(O)cc1)[C@@H](C)O)[C@@H](C)O)[C@@H](C)CC)C(C)C)C(N)=O [mt-288] |  | 79.56% | 250.72% | exhibited activity at the GIP, GLP-1, and glucagon receptors |  | 84.78% | 0.0137 nM | 0.0207 nM | 0.0138 nM |  |  |  |  |
| CC[C@H](C)[C@H](NC(=O)[C@H](CO)NC(=O)[C@H](Cc1ccc(O)cc1)NC(=O)[C@H](CC(=O)O)NC(=O)[C@H](CO)NC(=O)[C@@H](NC(=O)[C@H](Cc1ccccc1)NC(=O)[C@@H](NC(=O)CNC(=O)[C@H](CCC(N)=O)NC(=O)C(C)(C)NC(=O)[C@@H](N)Cc1ccc(O)cc1)[C@@H](C)O)[C@@H](C)O)C(=O)N[C@@H](Cc1ccc(O)cc1)C(=O)N[C@@H](CC(C)C)C(=O)N[C@@H](CC(=O)O)C(=O)N[C@H]1CCC(=O)NCCCC[C@@H](C(=O)N[C@@H](CCC(=O)O)C(=O)N[C@@H](Cc2ccccc2)C(=O)N[C@H](C(=O)N[C@@H](CC(N)=O)C(=O)N[C@@H](Cc2c[nH]c3ccccc23)C(=O)N[C@@H](CC(C)C)C(=O)N[C@@H](CC(C)C)C(=O)N[C@@H](C)C(=O)NCC(=O)NCC(=O)N2CCC[C@H]2C(=O)N[C@@H](CO)C(=O)N[C@@H](CO)C(=O)NCC(=O)N[C@@H](C)C(=O)N2CCC[C@H]2C(=O)N2CCC[C@H]2C(=O)N2CCC[C@H]2C(=O)N[C@@H](CO)C(=O)N[C@@H](CS)C(N)=O)C(C)C)NC(=O)[C@H](C)NC(=O)[C@H](C)NC(=O)[C@H](CCC(N)=O)NC1=O [mt-165] (H-Y[Aib]QGTFTSDYSIYLDEQAAKEFVNWLLAGGPSSGAPPPSC-NH2; lactam 16-20; N-terminus assumed) |  |  |  | exemplary GLP-1/GIP/glucagon triagonist peptides |  |  |  |  |  | 27.03% | 18.81% | 0.023 nM | 147.83% |
| CC[C@H](C)[C@H](NC(=O)[C@H](CO)NC(=O)[C@H](Cc1ccc(O)cc1)NC(=O)[C@H](CC(=O)O)NC(=O)[C@H](CO)NC(=O)[C@@H](NC(=O)[C@H](Cc1ccccc1)NC(=O)[C@@H](NC(=O)CNC(=O)[C@H](CCC(N)=O)NC(=O)C(C)(C)NC(=O)[C@@H](N)Cc1ccc(O)cc1)[C@@H](C)O)[C@@H](C)CC)C(=O)N[C@@H](Cc1ccc(O)cc1)C(=O)N[C@@H](CC(C)C)C(=O)N[C@@H](CC(=O)O)C(=O)N[C@H]1CCC(=O)NCCCC[C@@H](C(=O)N[C@@H](CCC(=O)O)C(=O)N[C@@H](Cc2ccccc2)C(=O)N[C@H](C(=O)N[C@@H](CC(N)=O)C(=O)N[C@@H](Cc2c[nH]c3ccccc23)C(=O)N[C@@H](CC(C)C)C(=O)N[C@@H](CC(C)C)C(=O)N[C@@H](C)C(=O)NCC(=O)NCC(=O)N2CCC[C@H]2C(=O)N[C@@H](CO)C(=O)N[C@@H](CO)C(=O)NCC(=O)N[C@@H](C)C(=O)N2CCC[C@H]2C(=O)N2CCC[C@H]2C(=O)N2CCC[C@H]2C(=O)N[C@@H](CO)C(=O)N[C@@H](CS)C(N)=O)C(C)C)NC(=O)[C@H](C)NC(=O)[C@H](C)NC(=O)[C@H](CCC(N)=O)NC1=O [mt-176] |  |  |  | exemplary GIP/glucagon co-agonist peptides |  |  |  |  |  | 40.00% | 26.24% |  | 0.23% |
| CCCCCCCC(=O)NCCCC[C@H](NC(=O)[C@H](CO)NC(=O)[C@@H]1CCCN1C(=O)[C@@H]1CCCN1C(=O)[C@@H]1CCCN1C(=O)[C@H](C)NC(=O)CNC(=O)[C@H](CO)NC(=O)[C@H](CO)NC(=O)[C@@H]1CCCN1C(=O)CNC(=O)CNC(=O)[C@H](C)NC(=O)[C@H](CC(C)C)NC(=O)[C@H](CC(C)C)NC(=O)[C@H](Cc1c[nH]c2ccccc12)NC(=O)[C@H](CC(N)=O)NC(=O)[C@@H](NC(=O)[C@H](Cc1ccccc1)NC(=O)[C@H](CCC(=O)O)NC(=O)C(C)(C)NC(=O)[C@H](C)NC(=O)[C@H](C)NC(=O)[C@H](CCC(N)=O)NC(=O)[C@H](CCCCN)NC(=O)[C@H](CC(=O)O)NC(=O)[C@H](CC(C)C)NC(=O)[C@H](Cc1ccc(O)cc1)NC(=O)[C@@H](NC(=O)[C@H](CO)NC(=O)[C@H](Cc1ccc(O)cc1)NC(=O)[C@H](CC(=O)O)NC(=O)[C@H](CO)NC(=O)[C@@H](NC(=O)[C@H](Cc1ccccc1)NC(=O)[C@@H](NC(=O)CNC(=O)[C@H](CCC(N)=O)NC(=O)C(C)(C)NC(=O)[C@@H](N)Cc1ccc(O)cc1)[C@@H](C)O)[C@@H](C)O)[C@@H](C)CC)C(C)C)C(N)=O [mt-323] (H-Y[Aib]QGTFTSDYSIYLDKQAA[Aib]EFVNWLLAGGPSSGAPPPSK(Octanoyl)-NH2; N-terminus assumed) |  | 122.62% | 39.00% | exhibited activity at the GIP, GLP-1, and glucagon receptors |  | 35.55% |  | 0.217 nM | 0.0571 nM |  |  |  |  |
| CCCCCCCCCCCCCCCC(=O)NCCCC[C@H](NC(=O)[C@@H](NC(=O)[C@H](Cc1ccccc1)NC(=O)[C@H](CCC(=O)O)NC(=O)C(C)(C)NC(=O)[C@H](C)NC(=O)[C@H](C)NC(=O)[C@H](CCC(N)=O)NC(=O)[C@H](CCCCN)NC(=O)[C@H](CC(=O)O)NC(=O)[C@H](CC(C)C)NC(=O)[C@H](Cc1ccc(O)cc1)NC(=O)[C@@H](NC(=O)[C@H](CO)NC(=O)[C@H](Cc1ccc(O)cc1)NC(=O)[C@H](CC(=O)O)NC(=O)[C@H](CO)NC(=O)[C@@H](NC(=O)[C@H](Cc1ccccc1)NC(=O)[C@@H](NC(=O)CNC(=O)[C@H](CCC(=O)O)NC(=O)C(C)(C)NC(=O)[C@@H](N)Cc1ccc(O)cc1)[C@@H](C)O)[C@@H](C)O)[C@@H](C)CC)C(C)C)C(=O)N[C@@H](Cc1c[nH]c2ccccc12)C(=O)N[C@@H](CC(C)C)C(=O)N[C@@H](CC(C)C)C(=O)N[C@@H](C)C(=O)NCC(=O)NCC(=O)N1CCC[C@H]1C(=O)N[C@@H](CO)C(=O)N[C@@H](CO)C(=O)NCC(=O)N[C@@H](C)C(=O)N1CCC[C@H]1C(=O)N1CCC[C@H]1C(=O)N1CCC[C@H]1C(=O)N[C@@H](CO)C(N)=O [mt-266] |  | 5.19% | 0.23% | exhibited activity at the GIP, GLP-1, and glucagon receptors |  | 1.15% | 0.164 nM | 18.6 nM | 1.53 nM |  |  |  |  |
| CCCCCCCCCCCCCC(=O)NCCCC[C@H](NC(=O)[C@H](CO)NC(=O)[C@@H]1CCCN1C(=O)[C@@H]1CCCN1C(=O)[C@@H]1CCCN1C(=O)[C@H](C)NC(=O)CNC(=O)[C@H](CO)NC(=O)[C@H](CO)NC(=O)[C@@H]1CCCN1C(=O)CNC(=O)CNC(=O)[C@H](C)NC(=O)[C@H](CC(C)C)NC(=O)[C@H](CC(C)C)NC(=O)[C@H](Cc1c[nH]c2ccccc12)NC(=O)[C@H](CS)NC(=O)[C@@H](NC(=O)[C@H](Cc1ccccc1)NC(=O)[C@H](CCC(=O)O)NC(=O)C(C)(C)NC(=O)[C@H](C)NC(=O)[C@H](C)NC(=O)[C@H](CCC(N)=O)NC(=O)[C@H](CCCCN)NC(=O)[C@H](CC(=O)O)NC(=O)[C@H](CC(C)C)NC(=O)[C@H](Cc1ccc(O)cc1)NC(=O)[C@@H](NC(=O)[C@H](CO)NC(=O)[C@H](Cc1ccc(O)cc1)NC(=O)[C@H](CC(=O)O)NC(=O)[C@H](CO)NC(=O)[C@@H](NC(=O)[C@H](Cc1ccccc1)NC(=O)[C@@H](NC(=O)CNC(=O)[C@H](CCC(N)=O)NC(=O)C(C)(C)NC(=O)[C@@H](N)Cc1ccc(O)cc1)[C@@H](C)O)[C@@H](C)O)[C@@H](C)CC)C(C)C)C(N)=O [mt-286] |  | 68.55% | 84.80% | exhibited activity at the GIP, GLP-1, and glucagon receptors |  | 52.00% | 0.0159 nM | 0.0612 nM | 0.0225 nM |  |  |  |  |
